Measured values: patent publication US8288363B2, “Medicaments for anti-herpes virus treatments” (ASE & BIO, priority 2006, dated 2012)

What was measured:
Experiment in all cases: Anti-herpes activity, viability of infected vero cells (neutral red)
Conditions in all cases: incubation time 72 hours
[1] = test system: acyclovir-resistant strain HSV-1R; format: cell-based, herpes simplex virus 1
Method: (§1) This method is based on the principle that living cells absorb neutral red, which is a vital stain. The optical density of the medium was measured at the maximum absorption wavelength of neutral red, that is to say 540 nm, using a spectrophotometer (SpectraCount™, microplate photometer, Packard). The optical density at 540 nm is proportional to the number of living cells in an infected culture (McLaren et al., Antiviral Research, 1983; 3: 223-234 and Langlois et al., Standardization, 1986, 14: 201-211).
(§2) The effective concentration (EC 50%), that is to say the concentration of the sulphated polysaccharide which enables infection of 50% of the cells of a culture to be inhibited, was measured for each viral strain.
(§3) The determination of the EC50 was carried out in 96-well microtitre plates in accordance with the following protocol. Vero cells are seeded at a cell density of 3.5·10^4 cells/well in 100 μl of MEM medium containing 8% FCS. For each viral suspension defined by its MOI: • the negative control column was filled with 100 μl of MEM medium with 8% FCS, • the virus control column was filled with 50 μl of viral suspension having the required MOI and with 50 μl of MEM medium with 8% FCS, • the PS3 control column was filled with 50 μl of PS3 having the desired concentration range or with 50 μl of acyclovir (Zovirax 0.05-5 μg/ml • finally, all the other columns were filled successively with 50 μl of PS3 having the required concentration range or with 50 μl of acyclovir (Zovirax 0.05-5 μg/ml) and with 50 μl of the viral suspension having the desired MOI.
(§4) The EC50 corresponding to the concentration which enables the cytopathic effect of the virus to be reduced by 50% was calculated in accordance with the following formula: […]
(§5) The anti-herpes activity of PS3 was evaluated and compared on each viral suspension of HSV-1, HSV-1R, HSV-2 and HSV-2R defined by an MOI of 0.01 ID50/cell for a cell concentration of 350,000 cells/ml, after incubation times of 48 and 72 hours.
(§6) This series of experiments was carried out applying the protocol enabling the EC50 to be determined, as described in Example 3.
(§7) The therapeutic indices (TI) of PS3, as well as three other reference products, that is to say acyclovir, dextran sulphate and phycarine, were determined in parallel for each viral strain.
(§8) The therapeutic index (TI) represents the ratio between the maximum non-toxic dose (or a dose inducing a quantified toxicity) and the dose inducing a favourable pharmacological effect.

HSV-1 = format: cell-based, herpes simplex virus 1
Method: as §1, §2, §3, §4, §5, §6, §7, §8

HSV-2 = format: cell-based, herpes simplex virus 2
Method: as §1, §2, §3, §4, §5, §6, §7, §8

[2] = test system: acyclovir-resistant strain HSV-2R; format: cell-based, herpes simplex virus 2
Method: as §1, §2, §3, §4, §5, §6, §7, §8

Substance: dextran sulphate [reference compound]
- Therapeutic index HSV-1R [1]: >641
- Therapeutic index HSV-1 (HSV-1): >868
- Therapeutic index HSV-2 (HSV-2): >3,571
- Therapeutic index HSV-2R [2]: >4,545
